In ChEMBL document CHEMBL5154882, “Discovery of 4-Hydroxyquinazoline Derivatives as Small Molecular BET/PARP1 Inhibitors That Induce Defective Homologous Recombination and Lead to Synthetic Lethality for Triple-Negative Breast Cancer Therapy” (J Med Chem, 2022) one finds IC50 and inhibition data, which are given here for 5 compounds.

Where only a bound is given, the exact number is not on record here.

One assay has as its system MDA-MB-468. The assay can be described thus: Antiproliferative activity against human MDA-MB-468 cells assessed as reduction in cell viability incubated for 72 hrs by MTT assay. Type of assay: functional, cell-based. The following applies: MDA-MB-468, 72 h. For orientation: Formazan colour is commonly taken as a measure of viable cells.
Assay [1] addresses Bromodomain-containing protein 4 (Homo sapiens, UniProt O60885). The assay can be described thus: Inhibition of BRD4 (unknown origin) at 1 uM relative to control.
The test system of the next assay is MDA-MB-231. In words: Antiproliferative activity against human MDA-MB-231 cells assessed as reduction in cell viability incubated for 72 hrs by MTT assay. It counts as functional, cell-based. The following applies: MDA-MB-231, 72 h.
The target of assay [2] is Poly [ADP-ribose] polymerase 1 (Homo sapiens, UniProt P09874). The assay can be described thus: Inhibition of PARP1 (unknown origin) at 1 uM relative to control.
Sequence of Poly [ADP-ribose] polymerase 1 (P09874 whole entry): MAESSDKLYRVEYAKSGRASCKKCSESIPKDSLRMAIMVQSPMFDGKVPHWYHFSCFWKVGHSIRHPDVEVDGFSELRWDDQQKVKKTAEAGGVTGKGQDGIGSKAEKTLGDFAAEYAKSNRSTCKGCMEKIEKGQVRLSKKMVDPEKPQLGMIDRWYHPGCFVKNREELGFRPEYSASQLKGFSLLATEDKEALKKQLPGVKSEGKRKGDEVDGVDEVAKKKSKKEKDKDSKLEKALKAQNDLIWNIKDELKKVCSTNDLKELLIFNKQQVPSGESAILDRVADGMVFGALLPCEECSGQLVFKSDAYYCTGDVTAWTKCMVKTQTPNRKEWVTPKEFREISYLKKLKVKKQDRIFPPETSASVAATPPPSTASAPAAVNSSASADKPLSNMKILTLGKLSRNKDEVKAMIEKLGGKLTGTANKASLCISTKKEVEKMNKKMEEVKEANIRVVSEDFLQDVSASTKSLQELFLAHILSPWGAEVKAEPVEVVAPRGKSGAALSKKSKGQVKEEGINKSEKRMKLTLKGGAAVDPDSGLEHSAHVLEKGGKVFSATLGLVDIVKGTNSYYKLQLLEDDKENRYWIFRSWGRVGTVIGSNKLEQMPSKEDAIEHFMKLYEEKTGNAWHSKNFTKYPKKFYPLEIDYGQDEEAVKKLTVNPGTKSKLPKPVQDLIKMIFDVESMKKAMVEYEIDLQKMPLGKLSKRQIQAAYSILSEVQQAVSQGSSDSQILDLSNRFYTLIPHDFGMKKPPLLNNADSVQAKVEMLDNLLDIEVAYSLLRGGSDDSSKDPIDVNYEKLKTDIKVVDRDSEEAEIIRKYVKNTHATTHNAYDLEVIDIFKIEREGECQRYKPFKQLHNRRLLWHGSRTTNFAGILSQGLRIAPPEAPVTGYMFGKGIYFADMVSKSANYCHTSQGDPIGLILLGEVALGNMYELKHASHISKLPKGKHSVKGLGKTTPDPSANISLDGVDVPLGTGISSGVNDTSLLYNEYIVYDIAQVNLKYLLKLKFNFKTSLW

For `O=c1[nH]nc(Cc2cccc(-c3nc4cccc(Cl)c4c(=O)[nH]3)c2)c2ccccc12`, the 50% inhibitory concentration (IC50) in the assay on MDA-MB-468 was 7.3 µM; in the assay on MDA-MB-231, 11 µM. Besides, the inhibition in assay [1] stood at 64.8%; in assay [2], 75.3%.
Take `COc1cc(-c2nc3ccc(F)cc3c(=O)[nH]2)ccc1Cc1n[nH]c(=O)c2ccccc12`: the IC50 was found to be 31.4 µM in the assay on MDA-MB-468 and 26 µM with MDA-MB-231. Moreover, the results for the inhibition in assay [1] and in assay [2] were 41.5% and 36.1%, respectively.
Consider `COc1ccc2nc(-c3ccc(Cc4n[nH]c(=O)c5ccccc45)cc3)[nH]c(=O)c2c1`, for which the IC50 amounted to 16 µM in the assay on MDA-MB-468 and 19.1 µM in the assay on MDA-MB-231. Also, the inhibition in assay [1] was 45.5%; in assay [2] it was 57.4%.
Turning to `Cc1cccc2nc(-c3ccc(Cc4n[nH]c(=O)c5ccccc45)c(F)c3)[nH]c(=O)c12`, the IC50 in the assay with MDA-MB-468 and in the assay with MDA-MB-231 was over 40 µM throughout. The inhibition was found to be 38.2% in assay [1] and 34.8% in assay [2].
On to `COc1cc(OC)c2c(=O)[nH]c(-c3ccc(Cc4n[nH]c(=O)c5ccccc45)c(F)c3)nc2c1`, for which the IC50 with MDA-MB-468 stood at 25.5 µM; with MDA-MB-231 it was 28.3 µM. The inhibition in assay [1] turned out to be 63.5%; in assay [2] it was 35.9%.

As usually defined, the IC50 is the concentration needed to halve the response being measured. For orientation: inhibition means the drop in the measured response relative to a control, in per cent. A low value points to little suppression.
